According to the CheMixHub ionic liquid set:
± gives the uncertainty stated by the source.

Experiment: xn = mol fraction of the nth substance listed

CC[n+]1ccn(C)c1C.F[B-](F)(F)F + CC#N
viscosity [mPa·s], 101.3 kPa
Conditions | 293.15 K | 298.15 K | 303.15 K | 308.15 K | 313.15 K | 318.15 K | 323.15 K | 328.15 K | 333.15 K
x1 = 0.02106 | 0.518 ± 0.044 | 0.505 ± 0.043 | 0.476 ± 0.04 | 0.456 ± 0.039 | 0.442 ± 0.037 | 0.428 ± 0.036 | 0.414 ± 0.035 | 0.401 ± 0.034 | 0.389 ± 0.033
x1 = 0.04617 | 0.648 ± 0.055 | 0.618 ± 0.052 | 0.59 ± 0.05 | 0.566 ± 0.048 | 0.543 ± 0.046 | 0.52 ± 0.044 | 0.501 ± 0.042 | 0.483 ± 0.041 | 0.465 ± 0.039
x1 = 0.07663 | 0.846 ± 0.072 | 0.808 ± 0.068 | 0.768 ± 0.065 | 0.732 ± 0.062 | 0.698 ± 0.059 | 0.667 ± 0.056 | 0.636 ± 0.054 | 0.608 ± 0.051 | 0.583 ± 0.049
x1 = 0.1143 | 1.116 ± 0.095 | 1.051 ± 0.089 | 0.995 ± 0.084 | 0.943 ± 0.08 | 0.893 ± 0.076 | 0.85 ± 0.072 | 0.809 ± 0.069 | 0.769 ± 0.065 | 0.733 ± 0.062
x1 = 0.1622 | 1.68 ± 0.14 | 1.58 ± 0.13 | 1.48 ± 0.13 | 1.39 ± 0.12 | 1.31 ± 0.11 | 1.24 ± 0.11 | 1.17 ± 0.099 | 1.105 ± 0.094 | 1.049 ± 0.089
x1 = 0.2251 | 2.63 ± 0.22 | 2.44 ± 0.21 | 2.26 ± 0.19 | 2.11 ± 0.18 | 1.97 ± 0.17 | 1.84 ± 0.16 | 1.73 ± 0.15 | 1.62 ± 0.14 | 1.53 ± 0.13
x1 = 0.3112 | 4.25 ± 0.36 | 3.81 ± 0.33 | 3.48 ± 0.3 | 3.2 ± 0.27 | 2.94 ± 0.25 | 2.71 ± 0.23 | 2.51 ± 0.21 | 2.33 ± 0.2 | 2.16 ± 0.18
x1 = 0.4365 | 8.05 ± 0.68 | 7.11 ± 0.6 | 6.37 ± 0.54 | 5.75 ± 0.49 | 5.18 ± 0.44 | 4.7 ± 0.4 | 4.27 ± 0.36 | 3.91 ± 0.33 | 3.57 ± 0.3

C[N+]1(CCOCCOCC[N+]2(C)CCCC2)CCCC1.O=S(=O)([N-]S(=O)(=O)C(F)(F)F)C(F)(F)F.O=S(=O)([N-]S(=O)(=O)C(F)(F)F)C(F)(F)F + CC[n+]1ccn(C)c1.O=S(=O)([N-]S(=O)(=O)C(F)(F)F)C(F)(F)F + O=S(=O)([N-]S(=O)(=O)C(F)(F)F)C(F)(F)F.[Li+]
100 kPa, x1 = 0.2689, x2 = 0.5819
Conditions | electrical conductivity [S/m]
298 K | 0.282 ± 0.011
303 K | 0.341 ± 0.014
313 K | 0.451 ± 0.018
323 K | 0.63 ± 0.03
333 K | 0.82 ± 0.03
343 K | 1.02 ± 0.041

CS(C)=O + CC(=O)[O-].CC[NH+](CC)CC
101 kPa, x1 = 1
Conditions | viscosity [mPa·s]
298.15 K | 1.99 ± 0.06
303.15 K | 1.79 ± 0.05
308.15 K | 1.65 ± 0.05

CCCC[N+](CCCC)(CCCC)CCCC.[Cl-] + CSCC[C@H](N)C(=O)O
101 kPa
Conditions | electrical conductivity, x2 = 0.08333 [S/m] | electrical conductivity, x2 = 0.09091 [S/m] | electrical conductivity, x2 = 0.1 [S/m] | viscosity, x2 = 0.08333 [mPa·s] | viscosity, x2 = 0.09091 [mPa·s] | viscosity, x2 = 0.1 [mPa·s]
303.15 K | 0.0061 ± 0.001 | 0.0165 ± 0.001 | 0.0113 ± 0.001 | 2200 ± 840 | 2300 ± 890 | 2400 ± 940
313.15 K | 0.016 ± 0.001 | 0.026 ± 0.001 | 0.022 ± 0.001 | 1400 ± 470 | 1570 ± 550 | 1560 ± 540
323.15 K | 0.0259 ± 0.001 | 0.0418 ± 0.001 | 0.0313 ± 0.001 | 415 ± 92 | 530 ± 130 | 480 ± 110
333.15 K | 0.0749 ± 0.001 | 0.0929 ± 0.001 | 0.0837 ± 0.001 | 221 ± 38 | 295 ± 57 | 290 ± 55
343.15 K | 0.107 ± 0.0011 | 0.129 ± 0.0013 | 0.12 ± 0.0012 | 119 ± 15 | 157 ± 23 | 148 ± 21
353.15 K | 0.14 ± 0.0014 | 0.17 ± 0.0017 | 0.15 ± 0.0015 | 70 ± 7 | 94 ± 11 | 87 ± 10

CCCCCCCCCCCCCC[P+](CCCCCC)(CCCCCC)CCCCCC.N#Cc1ccc[n-]1 + CCCCCC[n+]1ccn(C)c1.O=S(=O)([N-]S(=O)(=O)C(F)(F)F)C(F)(F)F
viscosity [mPa·s], 100 kPa
Conditions | x2 = 0 | x2 = 0.2 | x2 = 0.4 | x2 = 0.504
283.15 K | – | – | 940 ± 120 | 810 ± 110
288.15 K | 800 ± 110 | 790 ± 100 | – | –

CCCn1cc[n+](C)c1.N[C@@H](CO)C(=O)[O-] + O
100 kPa
Conditions | electrical conductivity [S/m] | viscosity [mPa·s]
298.15 K, x1 = 0.8782 | – | 2215 ± 290
298.15 K, x1 = 0.9094 | – | 2314 ± 300
298.15 K, x1 = 0.9257 | – | 2391 ± 320
303.15 K, x1 = 0.9426 | – | 1547 ± 180
308.15 K, x1 = 0.8782 | – | 912 ± 92
313.15 K, x1 = 0.8656 | 0.0804 ± 0.0028 | –
313.15 K, x1 = 0.8956 | 0.0751 ± 0.0026 | –
313.15 K, x1 = 0.9115 | 0.0721 ± 0.0025 | –
318.15 K, x1 = 0.8936 | – | 432 ± 33
318.15 K, x1 = 0.9094 | – | 438 ± 34
318.15 K, x1 = 0.9115 | 0.102 ± 0.003 | –
318.15 K, x1 = 0.928 | 0.0979 ± 0.0033 | –
323.15 K, x1 = 0.8809 | 0.15 ± 0.005 | –
323.15 K, x1 = 0.8956 | 0.145 ± 0.005 | –
323.15 K, x1 = 0.9426 | – | 337 ± 23
328.15 K, x1 = 0.8809 | 0.199 ± 0.006 | –
328.15 K, x1 = 0.9257 | – | 238 ± 14
333.15 K, x1 = 0.8782 | – | 171 ± 8.5
333.15 K, x1 = 0.9115 | 0.248 ± 0.007 | –
338.15 K, x1 = 0.9115 | 0.319 ± 0.009 | –
338.15 K, x1 = 0.9257 | – | 134.8 ± 6
338.15 K, x1 = 0.928 | 0.312 ± 0.008 | –

CS(C)=O + CC[n+]1ccn(C)c1.COS(=O)(=O)[O-]
100 kPa, x2 = 0
Conditions | viscosity [mPa·s]
298.15 K | 1.99 ± 0.04
303.15 K | 1.8 ± 0.04
308.15 K | 1.65 ± 0.04
313.15 K | 1.54 ± 0.03

O=C(O)C(=O)O + C[N+](C)(C)Cc1ccccc1.[Cl-]
101 kPa, x2 = 0.5
Conditions | electrical conductivity [S/m] | viscosity [mPa·s]
293.14 K | 0.2104 ± 1e-08 | –
293.17 K | – | 1971 ± 130
298.07 K | 0.3284 ± 1e-07 | –
298.09 K | – | 1362 ± 83
303.08 K | 0.4611 ± 1e-08 | –
303.11 K | – | 714 ± 38
308.09 K | 0.6182 ± 1e-07 | –
308.12 K | – | 452 ± 20
312.95 K | – | 266.7 ± 9.4
313.1 K | 0.7996 ± 1e-08 | –
317.96 K | – | 197.3 ± 5.2
318.18 K | 1.025 ± 1e-07 | –
323.06 K | – | 166.6 ± 4.5
323.19 K | 1.246 ± 1e-07 | –
327.98 K | – | 58.6 ± 2.8
328.11 K | 1.505 ± 1e-07 | –
332.99 K | – | 27.7 ± 1.2
333.03 K | 1.774 ± 1e-07 | –
